{"source": "patent US8980910B2", "about": "“Treatment of glaucoma” (Indiana University Research and Technology Corporation, priority 2011, dated 2015)", "key": {"[1]": {"test_system": "isoflurane-anesthetized rats", "experiment": "infusion of bicuculline methiodide into the region of the DMH, simultaneous measurement of blood pressure, heart rate and IOP", "type": "in vivo, rat", "conditions": "BMI 30 pmol/75 nL into the DMH vs saline vehicle", "experimental": "FIG. 2A-C Simultaneous measurement of blood pressure (FIG. 2A), heart rate (FIG. 2B), and IOP (FIG. 2C) in a series of isoflurane-anesthetized rats after infusion of bicuculline methiodide (30 pmol/75 nL; n=9) or saline vehicle (75 nL; n=10) into the region of the DMH. * indicates a significant difference (p<0.05) between the vehicle treated and the BMI treated group using a repeated measures ANOVA followed by post-hoc analysis for differences between timepoints using a t-test.\nTo investigate whether orexin containing neurons located in the dorsornedial hypothalamus (DMH) and/or perifornical (PeF) area play a role in mediating the circadian fluctuations in IOP, isoflurane-anesthetized rats were administered orexin inhibitors and their vital functions were monitored."}, "panic-prone rats": {"test_system": "panic-prone rats", "conditions": "30 mg/kg i.p. prior to 15 min i.v. infusion of 0.5M sodium lactate", "text": "Panic disorder is associated with disruption of central inhibitory gamma-aminobutyric acid (GABAergic) tone, and may contribute to panic attacks which are consistently provoked by ordinarily mild physical stressors such as mild osmotic disturbances (e.g., intravenous sodium lactate challenges). […] Orexin/hypocretin producing neurons are almost exclusive to dorsomedial hypothalamus/perifornical area and adjacent lateral hypothalamus, and play a critical role in maintaining wakefulness, vigilance and central sympathetic mobilization, which are key components of panic and anxiety. Experiments were conducted to investigate whether the administration of either a systemic orexin 1 antagonist or silencing the hypothalamic orexin gene product with RNA interference could block lactate-induced panic responses."}, "[2]": {"test_system": "isoflurane anesthetized rat", "experiment": "attenuation of physiologic responses to BMI microinjection into the DMH by systemic orexin-1 receptor antagonist", "type": "in vivo", "conditions": "30 mg/kg i.p.; BMI 20 pmol/50 nL into the DMH before and after antagonist; FIG. 3; listed as SB334861", "experimental": "FIG. 3 Continuous and simultaneous measurement of blood pressure, heart rate, and core body temperature in an isoflurane anesthetized rat after identical microinjections of BMI (20 pmol/50 nL) into the DMH (time marks 1 and 3) before and after systemic administration of the orexin-1 receptor antagonist SB334861 (30 mg/kg i.p.; time mark 2).\nExperiments were then conducted to determine whether an orexin-I receptor antagonist (SB334861) could attenuate the physiologic responses to chemical stimulation of the DMH. To test orexin inhibitors ability to attenuate the BMI stimulated response, BMI was administered to an isoflurane-anesthetized rat both before and after administration of the orexin inhibitor and the responses were monitored."}, "[3]": {"molecular_target": "T1, orexin receptor-1 (ORX 1) (Homo sapiens, UniProt O43613)", "T1 sequence (O43613 1-425)": "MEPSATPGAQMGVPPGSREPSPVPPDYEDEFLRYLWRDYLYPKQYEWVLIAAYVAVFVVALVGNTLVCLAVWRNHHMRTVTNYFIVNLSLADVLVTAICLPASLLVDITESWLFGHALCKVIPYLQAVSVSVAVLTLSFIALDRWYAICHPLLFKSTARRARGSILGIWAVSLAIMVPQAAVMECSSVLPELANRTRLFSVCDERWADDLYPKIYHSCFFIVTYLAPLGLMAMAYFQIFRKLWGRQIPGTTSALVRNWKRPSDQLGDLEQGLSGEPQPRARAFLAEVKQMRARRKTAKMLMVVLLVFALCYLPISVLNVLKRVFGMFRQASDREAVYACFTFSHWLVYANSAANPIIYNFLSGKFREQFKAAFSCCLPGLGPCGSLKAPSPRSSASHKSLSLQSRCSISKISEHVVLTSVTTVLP", "conditions": "orexin A relative to orexin B; cited from earlier work"}}, "note": "Entries after “also recorded” stand apart in the source; their conditions may differ."}
{"molecule": "C[N+]1(C)CCc2cc3c(cc2[C@H]1[C@@H]1OC(=O)c2c1ccc1c2OCO1)OCO3.[I-]", "note": "[BMI, bicuculline methiodide]", "values": [{"measurement": "blood pressure after chemical stimulation of the DMH", "setting": "[1]; FIG. 2A", "value": "expected increases"}, {"measurement": "heart rate after chemical stimulation of the DMH", "setting": "[1]; FIG. 2B", "value": "expected increases"}, {"measurement": "IOP after chemical stimulation of the DMH", "setting": "[1]; FIG. 2C", "value": "evoked an increase"}]}
{"molecule": "Cc1nc2ccc(NC(=O)Nc3ccnc4cccnc34)cc2o1", "note": "[SB334867, 1-(2-methylbenzoxazol-6-yl)-3-[1,5]naphthyridin-4-yl urea]", "values": [{"measurement": "lactate induced increases in core body temperature (thermogenic response)", "setting": "panic-prone rats; FIG. 1C", "value": "attenuated; also recorded: blocks"}, {"measurement": "lactate induced increases in heart rate (cardioexcitatory response)", "setting": "panic-prone rats; FIG. 1D", "value": "attenuated; also recorded: blocks"}, {"measurement": "BMI-evoked increase in blood pressure", "setting": "[2]", "value": "significant attenuation"}, {"measurement": "BMI-evoked increase in core body temperature", "setting": "[2]", "value": "significant attenuation"}, {"measurement": "BMI-evoked increase in heart rate", "setting": "[2]", "value": "significant attenuation"}]}
{"molecule": "orexin A: 33-amino acid neuropeptide, endogenous ligand of orexin receptors (QPLPDCCRQKTCSCRLYELLHGAGNHAAGILTL; Orexin-A; UniProt O43612 34-66, looked up)", "values": [{"measurement": "affinity of ORX 1 for orexin A greater than for orexin B", "setting": "[3]", "value": "1 order of magnitude"}]}
